Read-outs that look alike come from different tables or passages of the source.
How the values were obtained:
P. aeruginosa DSMZ 1117 = format: cell-based, Pseudomonas aeruginosa; conditions: for Reduction in adhered bacteria [%]: P. aeruginosa, polyester; for Reduction in adhered bacteria [%] P. aeruginosa: polyester fabric, application concentration 0.1 wt %, commercial product applied directly by padding, relative to uncoated fabric
Method: Circular fabric samples with a diameter of 0.6 cm were punched from coated and uncoated cotton and polyester fabrics. The fabric samples were fixed to a microtiter plate. The fabric samples were washed with acetone and sterilized with UV light for 60 minutes.
The strains were coated fresh from glycerol bacterial cultures onto tryptic soy agar (TSA). Incubation took place overnight at 33° C. The nutrient medium prepared was a tryptic soy broth (TSB), with 30% of the amount recommended by the manufacturer, supplemented with 0.25% of glucose. […] The nutrient medium was inoculated with the bacterial cultures and after inoculation was cultivated overnight at 37° C. and 160 rpm.
The resulting overnight cultures were centrifuged at 8500 g for 15 minutes and washed with 50 ml of isotonic saline solution (0.9 wt %). Bacterial suspensions in isotonic saline solutions were prepared. The optical density of the various bacterial suspensions was determined at 595 nm and adjusted to a level of about 1.2.
50 μl of the final microorganism suspension in isotonic saline solution (0.9 wt %) prepared as described under 2.2 were added to the coated and uncoated fabric samples fixed on the microtiter plate (see 2.1). The microtiter plates were closed and sealed off with Parafilm. The microtiter plates were placed in an antievaporation box and incubated at 33° C. for 2 h and at 40 rpm. The expected colony-forming unit count (CFU) of the inoculum at the start was 10^6-10^7 CFU/ml.
After the biofilm had formed, the planctonic cells were removed and used as a sample for determining the optical density at 595 nm. For this purpose, the samples were made up to a volume of 150 μl, and 100 μl were withdrawn for the optical density determination in a photometer. […] Through the determination of the planctonic cells after the formation of biofilm, the amount of bacteria available for adhesion was monitored.
The fabric samples and the resulting biofilm were washed three times with 200 to 300 μl of isotonic saline solution.
The fabric samples obtained under 2.4 (after formation of biofilm) were placed together with 100 μl of isotonic saline solution into wells of a 96-well microtiter plate.
Investigations into the removal of the adhered microorganisms from the fabric surfaces were carried out with vortexing, ultrasound, with enzymatic treatment, or with combinations thereof. Treatment in the vortex amounted to 5 minutes and was performed horizontally. The ultrasound treatment was carried out in an ultrasound bath for 5 minutes. For the enzymatic removal, the fabric samples were treated with enzymes, such as trypsin or a mixture of different enzymes, for example, during incubation at 37° C. for 1 hour.
Following removal of the adhered bacteria, the fabric samples were removed from the microtiter plates.
The number of removed bacteria in the resulting suspension was determined by staining with Syto9 and fluorescence measurement (fluorescence filter with excitation at 485/20 nm and emission at 528/20 nm) or by staining with BacTiterGlo and bioluminescence measurement. Furthermore, it is possible to determine the number of adhered and removed microorganisms by means of protein assay (e.g., BCA assay, Bradford Assay) or optical density proliferation assay.
The relative variables (e.g., fluorescence units (RFU)) concerning the coated and uncoated fabrics were compared, allowing the reduction in adhered bacteria in % to be determined in accordance with the following formula: Reduction in adhered bacteria[%]=[(RFUuc−RFUuc)/RFUuc]*100 where • RFUuc=relative fluorescence units of the removed bacteria of the uncoated substrate • RFUc=relative fluorescence units of the removed bacteria of the coated substrate
The commercial products described in example 1 were applied directly by a padding method to polyester fabric samples.
Bacterial adhesion to the polyester fabric samples was investigated using the microtiter plate Syto9 assay, as described in example 2.

Staphylococcus aureus = format: cell-based; conditions: for Reduction in cell count relative to control [%] S. aureus: coated glass slide vs uncoated glass control K; for Cell count [1/cm^2] S. aureus: glass slide coated from 0.1% strength solution, bacterial suspension 10^9 microbes/ml, 30 measuring windows
Text: Silane derivatives S1, S3, S4 and S5 as identified above in example 1 were used to produce coatings on glass slides. As a control (comparison sample) K, an uncoated glass slide cleaned with isopropanol was used.
For the coating of the slides they were immersed for 60 seconds into a 0.1% strength solution of the corresponding silane derivative in ethanol/water as solvent with a water fraction of 5%. The solutions had been adjusted with acetic acid beforehand to a pH in the range from 4 to 5. The wetted slides were subsequently dried at 160° C. for 1 hour.
The slides wetted with the bacterial suspension were analyzed by microscope to determine the adhering bacteria. […] The fluorescent dye used was DAPI (4′,6-diamidine-2-phenylindole), which binds to DNA and fluoresces under UV excitation. In order to determine the adhesion characteristics, the cell counts per cm^2 were ascertained in 30 measuring windows, and the adhesion pattern was evaluated. Cell attachment was evaluated on an Olympus IX 51 using the Labflow AnalySIS image processing program.
Bacterial suspensions produced and used were suspensions of test cultures of the strains Staphylococcus aureus and Escherichia coli. The concentration of the bacterial suspension was 10^9 microbes/ml.

[1] = coating concentration 0.001 %, wash pretreatment (A) unwashed
[2] = coating concentration 0.001 %, wash pretreatment (B) washed twice at 30° C. only with water
[3] = coating concentration 0.001 %, wash pretreatment (C) washed once at 30° C. EN ISO 6330 method 8A with ECE B detergent
[4] = coating concentration 0.01 %, wash pretreatment (A) unwashed
[5] = coating concentration 0.01 %, wash pretreatment (B) washed twice at 30° C. only with water
[6] = coating concentration 0.01 %, wash pretreatment (C) washed once at 30° C. EN ISO 6330 method 8A with ECE B detergent
[7] = coating concentration 0.1 %, wash pretreatment (A) unwashed
[8] = coating concentration 0.1 %, wash pretreatment (B) washed twice at 30° C. only with water
[9] = coating concentration 0.1 %, wash pretreatment (C) washed once at 30° C. EN ISO 6330 method 8A with ECE B detergent

| Molecule | Reduction in adhered bacteria [%] (P. aeruginosa DSMZ 1117; [1]) | Reduction in adhered bacteria [%] (P. aeruginosa DSMZ 1117; [2]) | Reduction in adhered bacteria [%] (P. aeruginosa DSMZ 1117; [3]) | Reduction in adhered bacteria [%] (P. aeruginosa DSMZ 1117; [4]) | Reduction in adhered bacteria [%] (P. aeruginosa DSMZ 1117; [5]) | Reduction in adhered bacteria [%] (P. aeruginosa DSMZ 1117; [6]) | Reduction in adhered bacteria [%] (P. aeruginosa DSMZ 1117; [7]) | Reduction in adhered bacteria [%] (P. aeruginosa DSMZ 1117; [8]) | Reduction in adhered bacteria [%] (P. aeruginosa DSMZ 1117; [9]) | Reduction in adhered bacteria [%] P. aeruginosa (P. aeruginosa DSMZ 1117) | Reduction in cell count relative to control [%] S. aureus (Staphylococcus aureus) | adhesion of S. aureus to coated glass, assessment in words (Staphylococcus aureus; coated glass slides) | Cell count [1/cm^2] S. aureus (Staphylococcus aureus) |
| --- | --- | --- | --- | --- | --- | --- | --- | --- | --- | --- | --- | --- | --- |
| N-(triethoxysilylpropyl)-O-polyethylene oxide-urethane, (4-6 EO units) [S3] | 63% | 46% | 69% | 65% | 37% | 71% | 85% | 36% | 76% | 48% | 83% | Very good results | 77 000 1/cm^2 |
| CO[Si](CCCN(CCN(CC(=O)[O-])CC(=O)[O-])CC(=O)[O-])(OC)OC.[Na+].[Na+].[Na+] [S5, N-(trimethoxysilylpropyl)ethylenediaminetriacetyl acid, trisodium salt] | 81% | 42% | 77% | 78% | 54% | 73% | 68% | 69% | 67% | 17% | 52% |  | 219 000 1/cm^2 |

— patent US10132029B2, “Method for reducing adhesion of microorganisms to fabrics” (priority 2013, dated 2018)
